According to BindingDB's records for doi:10.1016/j.bmcl.2019.126899 (Sanford Burnham Prebys Medical Discovery Institute, 2020):

Test: Inhibition of CXCR6-mediated cell invasion in human SKHEP1 cells after 72 hrs by transwell assay

Which IC50 does the source give for `COc1cc(C(=O)N[C@@H]2C[C@H]3CCC[C@@H](C2)N3Cc2nc3c(C(F)(F)F)cccc3s2)cc(OC)c1OC` here?
Its IC50 is 2.1 µM.
